Source: US7319021B2, “Cell lysis composition, methods of use, apparatus and kit” (Promega Corporation, priority 2002, dated 2008)
Where “and” joins values, the source holds several entries; their conditions need not be identical. Equal entries are not always repeated.

Legend:
E. coli cells [1] = test: Optical density and visual turbidity of E. coli culture after treatment (Example 2); type: cell-based
Method: E. coli bacteria expressing His-tagged Renilla Luciferase were grown in Luria Broth [L Broth]+10 ng/ml tetracycline [Tet] [50 ml of media in a 250 ml flask] at 37° C. overnight in a shaking incubator rotating at 200 RPM. The E. coli strain was prepared by transforming E. coli with a vector expressing histidine-tagged Renilla luciferase. The vector was constructed by conventional methods. See Maniatis et al., “Molecular Cloning: A Laboratory Manual,” 2nd Edition, Cold Spring Harbor Laboratory, Cold Spring Harbor, N.Y. (1982). Following overnight culture the bacterial cells were diluted 1:100 into fresh L broth+Tet and grown to a density of 0.6 at 600 nm [OD 600 0.6] at 37C on the shaking incubator. Renilla expression was induced by addition of isopropyl-beta-D-thiogalactopyranoside (IPTG) from a 1M filter sterilized solution to a final concentration of 1 mM. The culture was grown for 4 additional hours at 37C on the shaking incubator before use. […]
900 ul of 20 mM Tris-HCl pH 7.3 and 100 ul of the corresponding solutions were added to each of 12 disposable plastic cuvettes. After the instrument background was set to zero with a 20 mM Tris-HCl pH 7.3 solution at an optical density of 600 nm (OD600), and the optical density of the solutions was measured.

E. coli cells [2] = test: Release of Renilla Luciferase from E. coli (Example 2); type: cell-based
Method: E. coli bacteria expressing His-tagged Renilla Luciferase were grown in Luria Broth [L Broth]+10 ng/ml tetracycline [Tet] [50 ml of media in a 250 ml flask] at 37° C. overnight in a shaking incubator rotating at 200 RPM. The E. coli strain was prepared by transforming E. coli with a vector expressing histidine-tagged Renilla luciferase. The vector was constructed by conventional methods. See Maniatis et al., “Molecular Cloning: A Laboratory Manual,” 2nd Edition, Cold Spring Harbor Laboratory, Cold Spring Harbor, N.Y. (1982). Following overnight culture the bacterial cells were diluted 1:100 into fresh L broth+Tet and grown to a density of 0.6 at 600 nm [OD 600 0.6] at 37C on the shaking incubator. Renilla expression was induced by addition of isopropyl-beta-D-thiogalactopyranoside (IPTG) from a 1M filter sterilized solution to a final concentration of 1 mM. The culture was grown for 4 additional hours at 37C on the shaking incubator before use.
One ml of the Renilla luciferase expressing E. coli culture was added to each of 12 tubes, labeled 1 through 12: tubes 1-3, no further addition; tubes 4-6, 10 ul of 10 mg/ml lysozyme; tubes […], 100 ul of CLR formulation A, and; tubes 10-12, 100 ul of CLR formulation A and 10 ul of 10 mg/ml lysozyme. […]

lysozyme: 10 mg/ml solution of lysozyme [Sigma L 6876] in 20 mM Tris-HCl buffer, pH 7.3; 10 ul per ml culture
OD600 (E. coli cells [1]; 100 ul of treated culture in 900 ul 20 mM Tris-HCl pH 7.3, culture expressing His-tagged Renilla Luciferase): 0.3264 and 0.3261 and 0.3033 | level of turbidity, visual inspection (E. coli cells [1]; tubes inverted 10 times): very turbid | Relative Light Units Resuspended Pellet Sample (E. coli cells [2]; 2 ul of pellet resuspended in 800 ul): 58.41 Relative Light Units and 60.99 Relative Light Units and 72.03 Relative Light Units | Relative light Units, Supernatant Sample (E. coli cells [2]; 2 ul of supernatant): 0.053 Relative light Units and 0.074 Relative light Units and 0.048 Relative light Units
